For series [1], the system named is Escherichia coli strain 25922. Kind of series: Reduction of Escherichia coli in PBS after exposure to plant antimicrobials with and without silver (spread plate count). The series is classed as cell-based. The following applies: for effect of combination with silver ions on antimicrobial activity against E. coli: plant antimicrobial combined with silver ions in solution; for reduction with silver alone treatment (in words): 100 ppb silver alone, within 30 min of exposure. The procedure:
Escherichia coli strain 25922 was obtained from the American Type Culture Collection (ATCC; Manassas, Va., USA) and was maintained on Tryptic Soy Agar (TSA; Difco, Sparks, Md., USA) with incubation for 18 to 24 h at 37° C. Prior to the start of each experiment, an Erlenmeyer flask containing 100 ml of Tryptic Soy Broth (TSB; Difco, Sparks, Md., USA) was inoculated with the organism and incubated on an orbital shaker (Model […]; New Brunswick Scientific, Edison, N.J., USA) at 300 rpm at 37° C. overnight. […] Beckman Coulter, Inc., Fullerton, Calif., USA). The pelleted cells were washed by re-suspension in 100 ml of physiological saline (0.85% NaCl) followed by centrifugation as described previously. This step was repeated one additional time. The final pellet was resuspended in 10 ml of sterile phosphate buffered saline (PBS; pH 7.4; Sigma-Aldrich, St. Louis, Mo., USA). […] A stock solution of silver (Ag) ions was prepared immediately prior to the start of each experiment by adding AgNO3 (J.T. Baker, Phillipsburg, N.Y., USA) to distilled water to obtain an Ag ion concentration of 100 mg/l (100 ppm). The Ag concentration was measured at the beginning of each experiment by a colorimetric procedure using a Hach DR/2000 spectrophotometer (Anonymous 1989). […] (Berkley, Calif., USA). […] Louis, Mo., USA). The plant antimicrobials were dissolved and diluted (volume to volume) to specific test concentrations using PBS. […] A control with E. coli in PBS but no added antimicrobials was also included. Purified stocks of the bacteria were added separately to the antimicrobial solutions (final concentration of […]) and the flasks were placed on an orbital shaker (300 rpm) for the duration of the experiment. Experiments were performed in triplicate at room temperature (24° C.) in 50 ml polypropylene conical tubes (Becton, Dickinson and Company, Franklin Lakes, N.J., USA). At predetermined time intervals, 100 μl samples were collected and neutralized with Dey Engley (D/E) neutralizing broth (Difco, Sparks, Md., USA) at a ratio of 1:10. The D/E is neutralizes the antimicrobial effect of silver whereas the plant antimicrobials are neutralized via dilution. Samples were assayed for bacterial enumeration immediately. Bacterial samples were ten-fold serially diluted in physiological saline as needed and the surviving bacteria were enumerated using the spread plate method on duplicate plates of Levine Eosin Methylene Blue Agar (EMB; Becton, Dickinson and Company, Franklin Lakes, N.J., USA). The plates were incubated at 37° C. for 24 hours and the surviving bacterial colonies were counted. Data were reported as logarithmic reduction using the formula […], where N0 was the concentration of E. coli at time zero and Nt was the surviving concentration at time t. A Student's t-test was used to determine if there were significant differences between the control and the antimicrobial treatments (the reductions were compared to the control after 30 min) or between the various treatments (for each exposure time).

For series [2] the following is noted: humans; based on epidemiological and pharmacokinetic data (WHO); cited from earlier work.

Where only a bound is given, the exact number is not on record here.

Data on four compounds can be found in patent US9661856B1, “Synergy of plant antimicrobials with silver” (The Arizona Board of Regents on behalf of the University of …, priority 2012, dated 2017).

On to `Cc1ccc(C(C)C)cc1O` [Carvacrol, carvacrol], for which, in series [1], the “effect of combination with silver ions on antimicrobial activity against E. coli” value (shortened to “effect of combination with silver ions”) is listed as “enhanced or synergistic”.

For `O=C/C=C/c1ccccc1` [Cinnamaldehyde], in series [1] (0.05% citral, 0.02% carvacrol or 0.1% cinnamaldehyde, alone or with 100 ppb Ag, PBS), the “exposure time within which the reduction was statistically significant (P≦0.05) compared to the control” value was no more than 20 min. Besides, the “Reduction (Log10 ± standard deviation) in the population of Escherichia coli” value (“Reduction (Log10 ± standard deviation)” below) came out at 0.05 ± 0.04 Log10 in series [1] (Table 3, 1 min, 0.1% cinnamaldehyde (vol/vol), silver 100 ppb, PBS, inoculum 2.1 × 10^7 CFU/ml); 0.18 ± 0.04 Log10 in series [1] (Table 3, 5 min, 0.1% cinnamaldehyde (vol/vol), silver 100 ppb, PBS, inoculum 2.1 × 10^7 CFU/ml); 0.17 ± 0.07 Log10 in series [1] (Table 3, 10 min, 0.1% cinnamaldehyde (vol/vol), silver 100 ppb, PBS, inoculum 2.1 × 10^7 CFU/ml); 0.05 ± 0.04 Log10 in series [1] (Table 6, cinnamaldehyde 0.1% (vol/vol) in PBS, 1 min, inoculum 2.1 × 10^7 CFU/ml). Besides, the “effect of combination with silver ions” value in series [1] is recorded as “enhanced or synergistic”.

For the compound `CC(C)=CCCC(C)=CC=O` [Citral], in series [1] (Table 1, 1 min, 0.05% citral (vol/vol), silver 100 ppb, PBS, inoculum 1.7 × 10^7 CFU/ml), the “Reduction (Log10 ± standard deviation)” value came to 0.06 ± 0.03 Log10. For the same compound, the “effect of combination with silver ions” value in series [1] was “enhanced or synergistic”.

Consider `[Ag+]` [Silver], for which the “No Observable Adverse Effect Level (NOAEL), lifetime limit of silver” value in series [2] is on record as 10 g. Further, the “reduction with silver alone treatment (in words)” value is given as “no reductions were observed” in series [1] and “No significant reductions” in series [1] (listed as Ag). For the same compound, the “Reduction (Log10 ± standard deviation)” value is 0.01 ± 0.04 Log10 in series [1] (Table 1, 30 min, 0.05% citral (vol/vol), silver 100 ppb, PBS, inoculum 1.7 × 10^7 CFU/ml); 0.08 ± 0.12 Log10 in series [1] (Table 2, 5 min, 0.02% carvacrol (vol/vol), silver 100 ppb, PBS, inoculum 2.9 × 10^7 CFU/ml); 0.00 ± 0.06 Log10 in series [1] (Table 2, 10 min, 0.02% carvacrol (vol/vol), silver 100 ppb, PBS, inoculum 2.9 × 10^7 CFU/ml); 0.00 ± 0.04 Log10 in series [1] (Table 2, 30 min, 0.02% carvacrol (vol/vol), silver 100 ppb, PBS, inoculum 2.9 × 10^7 CFU/ml); 0.12 ± 0.10 Log10 in series [1] (Table 3, 30 min, 0.1% cinnamaldehyde (vol/vol), silver 100 ppb, PBS, inoculum 2.1 × 10^7 CFU/ml); 0.00 ± 0.03 Log10 in series [1] (Table 4, 1 min, 0.5% allspice oil (vol/vol), silver 100 ppb, PBS, inoculum 6.6 × 10^6 CFU/ml). In addition, the “Reduction (Log10 ± standard deviation)” value in series [1] (Table 4, 5 min, 0.5% allspice oil (vol/vol), silver 100 ppb, PBS, inoculum 6.6 × 10^6 CFU/ml) is 0.00 ± 0.08 Log10; in series [1] (Table 4, 10 min, 0.5% allspice oil (vol/vol), silver 100 ppb, PBS, inoculum 6.6 × 10^6 CFU/ml) it was 0.00 ± 0.12 Log10; in series [1] (Table 4, 20 min, 0.5% allspice oil (vol/vol), silver 100 ppb, PBS, inoculum 6.6 × 10^6 CFU/ml), 0.00 ± 0.23 Log10; in series [1] (Table 4, 30 min, 0.5% allspice oil (vol/vol), silver 100 ppb, PBS, inoculum 6.6 × 10^6 CFU/ml), 0.29 ± 0.32 Log10.
